The supplement of paper PMC10307832

Assays:
Experiment in all cases: relative viability (nuclei count vs DMSO), 5 days (fraction); higher = more cells survive
Vorinostat + Trametinib = compound: O=C(CCCCCCC(=O)Nc1ccccc1)NO [Vorinostat] + CC(=O)Nc1cccc(-n2c(=O)n(C3CC3)c(=O)c3c(Nc4ccc(I)cc4F)n(C)c(=O)c(C)c32)c1 [Trametinib] (partner 0.02 µM)
How it was run: (§1)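 Cells from lung cancer lines were seeded into 1536-well plates and, one day later, dosed by pin tool. Treatments were either a single drug or a fixed dose of an anchor drug with five library-drug doses (not always all listed) in √10 steps. After 5 days, nuclei were stained in a one-step fixation (final 0.05% Triton X-100, 1% formaldehyde, 1 ug/ml Hoechst) and counted on 4× images, and relative viability is the treated-to-vehicle nuclei ratio, as the median of duplicate plates.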

Vorinostat + OSI-027 = compound: O=C(CCCCCCC(=O)Nc1ccccc1)NO [Vorinostat] + COc1cccc2cc(-c3nc([C@H]4CC[C@H](C(=O)O)CC4)n4ncnc(N)c34)[nH]c12 [OSI-027] (partner 0.5 µM)
How it was run: as §1

Vorinostat + Dasatinib = compound: O=C(CCCCCCC(=O)Nc1ccccc1)NO [Vorinostat] + Cc1nc(Nc2ncc(C(=O)Nc3c(C)cccc3Cl)s2)cc(N2CCN(CCO)CC2)n1 [Dasatinib] (partner 0.075 µM)
How it was run: as §1

Vorinostat + Phenformin = compound: O=C(CCCCCCC(=O)Nc1ccccc1)NO [Vorinostat] + N=C(N)NC(=N)NCCc1ccccc1 [Phenformin] (partner 250 µM)
How it was run: as §1

Cell Line	relative viability (Vorinostat + Trametinib; first compound 0.253 µM)	relative viability (Vorinostat + Trametinib; first compound 0.8 µM)	relative viability (Vorinostat + Trametinib; first compound 2.53 µM)	relative viability (Vorinostat + Trametinib; first compound 8 µM)	relative viability (Vorinostat + OSI-027; first compound 0.253 µM)	relative viability (Vorinostat + OSI-027; first compound 0.8 µM)	relative viability (Vorinostat + OSI-027; first compound 2.53 µM)	relative viability (Vorinostat + OSI-027; first compound 8 µM)	relative viability (Vorinostat + Dasatinib; first compound 0.253 µM)	relative viability (Vorinostat + Dasatinib; first compound 0.8 µM)	relative viability (Vorinostat + Dasatinib; first compound 2.53 µM)	relative viability (Vorinostat + Dasatinib; first compound 8 µM)	relative viability (Vorinostat + Phenformin; first compound 0.253 µM)	relative viability (Vorinostat + Phenformin; first compound 0.8 µM)	relative viability (Vorinostat + Phenformin; first compound 2.53 µM)	relative viability (Vorinostat + Phenformin; first compound 8 µM)
PC-3 [JPC-3]	0.695	0.644	0.405	0.348	0.68	0.727	0.378	0.175	1	1	0.593	0.227	0.471	0.465	0.436	0.279
NCI-H441	0.555	0.602	0.226	0.127	0.705	0.576	0.229	0.194	0.846	0.557	0.285	0.138	1.1	0.863	0.317	0.169
NCI-H2342	0.703	0.774	0.685	0.484	0.607	0.649	0.524	0.386	0.304	0.315	0.274	0.28	0.561	0.653	0.573	0.375
NCI-H358	0.171	0.149	0.0954	0.0859	1.14	0.793	0.189	0.0874	0.182	0.227	0.0991	0.0768	0.5	0.47	0.115	0.082
NCI-H1793	0.383	0.34	0.3	0.182	0.328	0.32	0.302	0.151	0.491	0.433	0.351	0.135	0.467	0.415	0.516	0.279
SK-LU-1	0.495	0.474	0.41	0.205	0.407	0.377	0.204	0.116	0.192	0.208	0.133	0.0924	0.658	0.549	0.285	0.123
ChaGo-K-1	0.973	0.792	0.5	0.193	0.553	0.484	0.319	0.176	0.656	0.568	0.444	0.246	0.551	0.538	0.45	0.183
NCI-H1563					0.787	0.692	0.577	0.549	0.411	0.458	0.448	0.385	0.771	0.727	0.556	0.492
NCI-H596	0.876	0.632	0.426	0.235	0.843	0.36	0.637	0.293	0.634	0.448	0.385	0.202	0.838	0.587	0.474	0.272
NCI-H2023	0.65	0.422	0.184	0.07	0.473	0.359	0.134	0.0617	0.872	0.49	0.134	0.061	0.444	0.442	0.192	0.0722
NCI-H1437	0.481	0.368	0.23	0.155	0.934	0.467	0.197	0.146	0.459	0.183	0.152	0.137	0.302	0.246	0.168	0.178
EKVX	0.401	0.337	0.18	0.115	0.623	0.659	0.39	0.132	0.535	0.528	0.236	0.179	0.228	0.238	0.225	0.134
HCC-44	1.11	0.968	0.91	0.286	0.611	0.281	0.103	0.254					0.147	0.108	0.0733	0.0646
NCI-H2405	0.87	0.872	0.486	0.141	0.695	0.778	0.463	0.103	0.237	0.17	0.117	0.0585	0.495	0.404	0.279	0.0401
NCI-H1944	0.481	0.424	0.292	0.0999	0.413	0.287	0.226	0.165	0.204	0.184	0.178	0.174	0.203	0.19	0.146	0.123
NCI-H1734	0.721	0.713	0.5	0.117	0.803	0.672	0.362	0.137	0.608	0.624	0.39	0.111	0.501	0.388	0.297	0.0963
NCI-H322M	0.595	0.501	0.552	0.408	0.584	0.502	0.32	0.235	0.286	0.268	0.255	0.264	0.94	0.761	0.452	0.284
NCI-H2085	0.587	0.503	0.285	0.155	0.722	0.463	0.415	0.205	0.24	0.252	0.223	0.225	0.781	0.532	0.46	0.223
HOP-62	0.509	0.406	0.16	0.0861	0.985	0.649	0.378	0.0983	0.888	0.501	0.225	0.0813	0.815	0.592	0.319	0.114
SK-MES-1	0.728	0.71	0.454	0.239	0.72	0.664	0.199	0.149	0.566	0.657	0.197	0.148	0.719	0.723	0.517	0.207
NCI-H2170	0.926	0.921	0.578	0.108	0.78	0.759	0.569	0.144	0.68	0.459	0.355	0.14	0.481	0.394	0.384	0.164

Cell Line	relative viability (Vorinostat + Trametinib; first compound 0.253 µM)	relative viability (Vorinostat + Trametinib; first compound 0.8 µM)	relative viability (Vorinostat + Trametinib; first compound 2.53 µM)	relative viability (Vorinostat + Trametinib; first compound 8 µM)	relative viability (Vorinostat + OSI-027; first compound 0.253 µM)	relative viability (Vorinostat + OSI-027; first compound 0.8 µM)	relative viability (Vorinostat + OSI-027; first compound 2.53 µM)	relative viability (Vorinostat + OSI-027; first compound 8 µM)	relative viability (Vorinostat + Dasatinib; first compound 0.253 µM)	relative viability (Vorinostat + Dasatinib; first compound 0.8 µM)	relative viability (Vorinostat + Dasatinib; first compound 2.53 µM)	relative viability (Vorinostat + Dasatinib; first compound 8 µM)	relative viability (Vorinostat + Phenformin; first compound 0.253 µM)	relative viability (Vorinostat + Phenformin; first compound 0.8 µM)	relative viability (Vorinostat + Phenformin; first compound 2.53 µM)	relative viability (Vorinostat + Phenformin; first compound 8 µM)
HCC-78	0.774	0.495	0.201	0.181	0.346	0.32	0.224	0.234	0.371	0.398	0.211	0.2	0.719	0.58	0.292	0.22
LCLC-97TM1	0.238	0.207	0.142	0.074	0.444	0.582	0.249	0.112	0.914	0.68	0.365	0.226	0.489	0.421	0.253	0.144
UMC-11	0.845	0.245	0.0839	0.0678	0.441	0.263	0.135	0.0952	0.423	0.258	0.121	0.0971	0.325	0.199	0.123	0.115
CAL-12T	0.433	0.499	0.223	0.0898	0.814	0.746	0.292	0.0987	0.481	0.471	0.269	0.0806	0.685	0.562	0.312	0.0876
A-427	0.82	0.718	0.361	0.166	0.535	0.281	0.226	0.105	0.823	0.565	0.332	0.133	0.389	0.396	0.229	0.139
NCI-H1755	0.791	0.77	0.602	0.219	0.734	0.681	0.384	0.185	0.447	0.469	0.254	0.139	0.646	0.579	0.413	0.204
LXF-289	0.709	0.639	0.424	0.0759	0.969	0.761	0.407	0.0564	0.316	0.347	0.226	0.0398	0.595	0.558	0.306	0.0606
NCI-H838	0.631	0.481	0.279	0.112	0.531	0.508	0.298	0.137	0.378	0.442	0.368	0.186	0.95	0.562	0.317	0.139
NCI-H522	0.93	0.706	0.707	0.263	0.8	0.617	0.591	0.247	0.895	0.99	0.344	0.239	0.728	0.593	0.602	0.252
NCI-H1666	0.894	0.805	0.561	0.439	0.772	0.678	0.383	0.335	0.881	0.698	0.422	0.266	0.591	0.474	0.398	0.306
A549													0.17	0.168	0.0474	0.0242
LC-2-ad	0.936	0.776	0.435	0.221	0.81	0.508	0.206	0.159	0.585	0.235	0.127	0.124	0.568	0.461	0.221	0.133
LK-2	0.893	0.496	0.167	0.0907	0.196	0.169	0.117	0.103	0.36	0.188	0.114	0.123	0.778	0.321	0.197	0.126
LOU-NH91	0.883	0.857	0.754	0.455	0.828	0.62	0.516	0.303	0.661	0.577	0.544	0.361	0.774	0.663	0.628	0.348
NCI-H1792	0.292	0.257	0.145	0.0464	0.776	0.676	0.511	0.1	0.866	0.921	0.402	0.126	0.269	0.228	0.0757	0.0593
EPLC-272H	0.296	0.269	0.168	0.11	0.272	0.228	0.175	0.147	0.428	0.494	0.151	0.0935	0.321	0.332	0.104	0.084
HCC-366	0.412	0.333	0.062	0.0267	0.979	0.432	0.146	0.0279	0.805	0.426	0.102	0.0346	0.689	0.605	0.338	0.0385
H3255	0.819	0.709	0.576	0.227	0.669	0.694	0.478	0.289	0.396	0.342	0.309	0.301	0.33	0.302	0.323	0.262
RERF-LC-KJ	0.897	0.732	0.308	0.201	0.56	0.52	0.238	0.256	0.817	0.543	0.212	0.24	0.453	0.394	0.284	0.288
SW 900	0.739	0.703	0.249	0.129	0.49	0.472	0.227	0.0866	0.679	0.739	0.249	0.118	0.73	0.391	0.322	0.091
ABC-1					0.491	0.352	0.159	0.102	0.531	0.41	0.221	0.131	0.254	0.307	0.183	0.156
